{"source": "patent US20190365745A1", "about": "“USE OF CHRONIC TREATMENT WITH ATR INHIBITORS TO SENSITIZE CANCER CELLS TO PARP INHIBITORS” (Cornell University, priority 2018, published 2019)", "key": {"[1]": {"test_system": "U2OS cells", "test": "DR-GFP assay of HR-mediated repair", "format": "cell-based, Human", "protocol": "(§1) Human U2OS, HCT116, hTERT RPE-1, HEK293T, HeLa, U87, T98G, A2780, and human skin fibroblast cells (GM08398 and GM18366) were grown in DMEM media supplemented with 10% bovine calf serum, penicillin/streptomycin and non-essential amino acids. SV40 large T antigen transformed hTERT RPE-1 cells were generated by infecting hTERT RPE-1 cells with a SV40 large T antigen (SV40 LT)-expressing retrovirus and were selected using 500 μg/ml G418. The stable SV40 large T antigen transformed hTERT RPE-1 cell line was then maintained in culture media supplemented 500 μg/ml G418. For chronic treatment with ATR inhibitor (ATRi, VE-821) or ATM inhibitor (ATMi, KU-55933), cells were maintained in media with 5 μM ATR or ATM inhibitor respectively for 8 days before cells were subjected to western blot analysis, proteomic analysis, DR-GFP/EJ5-GFP assay or immunofluorescent staining. For CHK1 inhibitor (UCN-01), cells were treated for 5 days with 0.2 μM of inhibitor before the analysis. Primary human fibroblast cells from control subjects (GM08398) and patients with Seckel syndrome (GM18366, ATR-defective) were obtained from Coriell Institute for Medical Research, Camden, N.J.\nFor the DR-GFP assay, cells (U2OS, HCT116, hTERT RPE-1, HEK293T, HeLa, U87, T98G, A2780, 293-T-REX-E2F6 cells and SV40 large T antigen transformed hTERT RPE-1) were transfected with the mCherry plasmid or DR-GFP reporter plasmid (pDR-GFP; addgene plasmid 26475) together with a plasmid coding for I-SceI (pCBASceI; addgene plasmid 26477) or DR-GFP reporter plasmid together with an empty plasmid pCAGGS. Two days after transfection, cells were trypsinized, resuspended in PBS and then analyzed by flow cytometry using FACSAria Fusion or Accuri C6 cytometer (BD). In each experiment, the percentage of GFP-positive cells from the sample transfected with empty plasmid pCAGGS was subtracted from the percentage of GFP-positive cells in the sample transfected with I-SceI. The GFP percentage was then normalized by the mCherry transfection efficiency. Each graph was plotted based on at least 3 independent experiments showing mean±SEM (N≥3). For the EJ5-GFP assay, EJ5-GFP reporter plasmid (pimEJ5GFP, addgene plasmid 44026) was used instead of DR-GFP reporter plasmid and the assay was performed as described for DR-GFP assay."}, "[2]": {"test_system": "U2OS cells", "test": "EJ5-GFP (NHEJ) assay", "format": "cell-based, Human", "settings": "5 μM ATRi, 8 days", "protocol": "Human U2OS, HCT116, hTERT RPE-1, HEK293T, HeLa, U87, T98G, A2780, and human skin fibroblast cells (GM08398 and GM18366) were grown in DMEM media supplemented with 10% bovine calf serum, penicillin/streptomycin and non-essential amino acids. SV40 large T antigen transformed hTERT RPE-1 cells were generated by infecting hTERT RPE-1 cells with a SV40 large T antigen (SV40 LT)-expressing retrovirus and were selected using 500 μg/ml G418. The stable SV40 large T antigen transformed hTERT RPE-1 cell line was then maintained in culture media supplemented 500 μg/ml G418. […]\nFor the DR-GFP assay, cells (U2OS, HCT116, hTERT RPE-1, HEK293T, HeLa, U87, T98G, A2780, 293-T-REX-E2F6 cells and SV40 large T antigen transformed hTERT RPE-1) were transfected with the mCherry plasmid or DR-GFP reporter plasmid (pDR-GFP; addgene plasmid 26475) together with a plasmid coding for I-SceI (pCBASceI; addgene plasmid 26477) or DR-GFP reporter plasmid together with an empty plasmid pCAGGS. Two days after transfection, cells were trypsinized, resuspended in PBS and then analyzed by flow cytometry using FACSAria Fusion or Accuri C6 cytometer (BD). […]"}, "[3]": {"target": "T1, ATR (Homo sapiens, UniProt Q13535)", "T1 construct": "endogenous in cells; host or cells: U2OS (human osteosarcoma)", "T1 sequence (Q13535 whole entry)": "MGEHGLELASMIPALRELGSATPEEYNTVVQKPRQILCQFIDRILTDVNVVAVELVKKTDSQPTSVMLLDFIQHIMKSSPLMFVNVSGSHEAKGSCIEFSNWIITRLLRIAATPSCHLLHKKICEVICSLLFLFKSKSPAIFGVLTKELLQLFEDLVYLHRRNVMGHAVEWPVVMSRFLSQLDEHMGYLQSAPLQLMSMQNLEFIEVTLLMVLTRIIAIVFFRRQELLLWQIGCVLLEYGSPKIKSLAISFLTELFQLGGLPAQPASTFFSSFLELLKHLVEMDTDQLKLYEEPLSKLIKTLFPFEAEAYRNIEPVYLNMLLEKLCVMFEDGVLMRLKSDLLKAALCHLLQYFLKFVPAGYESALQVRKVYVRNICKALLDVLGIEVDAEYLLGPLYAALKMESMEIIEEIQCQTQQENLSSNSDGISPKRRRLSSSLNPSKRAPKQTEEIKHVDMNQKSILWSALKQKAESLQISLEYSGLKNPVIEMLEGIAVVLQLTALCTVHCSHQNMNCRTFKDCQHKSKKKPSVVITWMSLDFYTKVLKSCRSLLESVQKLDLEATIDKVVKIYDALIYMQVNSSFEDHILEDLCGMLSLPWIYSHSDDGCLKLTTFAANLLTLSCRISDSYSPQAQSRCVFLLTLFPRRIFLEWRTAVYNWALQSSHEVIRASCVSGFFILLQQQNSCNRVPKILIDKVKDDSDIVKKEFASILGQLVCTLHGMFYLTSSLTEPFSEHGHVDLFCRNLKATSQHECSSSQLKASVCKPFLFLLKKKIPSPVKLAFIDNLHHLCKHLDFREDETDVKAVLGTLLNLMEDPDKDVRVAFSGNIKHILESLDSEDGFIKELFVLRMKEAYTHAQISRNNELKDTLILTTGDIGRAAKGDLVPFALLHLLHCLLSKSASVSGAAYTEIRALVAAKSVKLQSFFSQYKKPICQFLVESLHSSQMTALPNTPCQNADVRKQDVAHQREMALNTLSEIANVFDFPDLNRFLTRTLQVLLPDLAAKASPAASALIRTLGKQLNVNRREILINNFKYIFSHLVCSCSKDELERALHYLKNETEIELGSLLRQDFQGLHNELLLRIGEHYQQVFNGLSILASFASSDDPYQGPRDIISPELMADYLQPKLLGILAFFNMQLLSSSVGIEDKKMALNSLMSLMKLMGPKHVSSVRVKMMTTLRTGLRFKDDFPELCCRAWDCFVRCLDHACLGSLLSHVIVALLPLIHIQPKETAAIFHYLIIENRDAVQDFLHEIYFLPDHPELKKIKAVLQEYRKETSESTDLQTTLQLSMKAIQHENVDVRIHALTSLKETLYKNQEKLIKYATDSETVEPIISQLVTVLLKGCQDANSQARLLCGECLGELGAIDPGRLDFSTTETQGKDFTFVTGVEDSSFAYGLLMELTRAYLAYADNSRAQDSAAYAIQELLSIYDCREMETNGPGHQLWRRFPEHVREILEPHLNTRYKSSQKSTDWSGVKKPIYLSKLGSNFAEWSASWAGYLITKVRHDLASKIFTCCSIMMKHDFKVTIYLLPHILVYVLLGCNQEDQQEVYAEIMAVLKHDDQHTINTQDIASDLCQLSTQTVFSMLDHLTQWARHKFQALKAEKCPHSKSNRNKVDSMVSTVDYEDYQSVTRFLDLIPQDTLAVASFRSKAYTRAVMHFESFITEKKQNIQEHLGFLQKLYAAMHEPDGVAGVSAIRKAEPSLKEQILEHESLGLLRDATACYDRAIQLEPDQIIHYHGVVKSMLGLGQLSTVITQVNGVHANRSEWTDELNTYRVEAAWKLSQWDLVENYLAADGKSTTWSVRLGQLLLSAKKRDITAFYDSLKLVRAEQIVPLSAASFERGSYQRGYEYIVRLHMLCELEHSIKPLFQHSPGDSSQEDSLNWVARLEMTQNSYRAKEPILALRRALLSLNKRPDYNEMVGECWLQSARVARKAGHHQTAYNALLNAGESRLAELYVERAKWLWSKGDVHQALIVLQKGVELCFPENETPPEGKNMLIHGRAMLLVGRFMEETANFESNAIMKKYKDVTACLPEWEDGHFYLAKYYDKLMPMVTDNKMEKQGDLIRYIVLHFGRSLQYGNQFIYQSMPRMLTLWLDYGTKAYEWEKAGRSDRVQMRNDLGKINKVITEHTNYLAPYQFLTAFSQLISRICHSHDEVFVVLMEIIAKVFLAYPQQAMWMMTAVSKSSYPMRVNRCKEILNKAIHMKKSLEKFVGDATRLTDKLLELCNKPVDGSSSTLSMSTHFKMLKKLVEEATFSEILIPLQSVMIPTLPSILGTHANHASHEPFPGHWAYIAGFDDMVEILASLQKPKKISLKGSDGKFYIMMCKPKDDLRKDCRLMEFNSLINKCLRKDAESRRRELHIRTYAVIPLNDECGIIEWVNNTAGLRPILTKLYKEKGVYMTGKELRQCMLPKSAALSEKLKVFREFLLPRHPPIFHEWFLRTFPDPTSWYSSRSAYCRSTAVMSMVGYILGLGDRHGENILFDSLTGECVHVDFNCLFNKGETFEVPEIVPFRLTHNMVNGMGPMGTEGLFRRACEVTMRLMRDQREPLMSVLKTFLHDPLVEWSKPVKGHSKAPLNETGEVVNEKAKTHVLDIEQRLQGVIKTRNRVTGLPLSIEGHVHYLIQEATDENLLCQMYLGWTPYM", "T1 sequence (Q8WXE1 whole entry partner)": "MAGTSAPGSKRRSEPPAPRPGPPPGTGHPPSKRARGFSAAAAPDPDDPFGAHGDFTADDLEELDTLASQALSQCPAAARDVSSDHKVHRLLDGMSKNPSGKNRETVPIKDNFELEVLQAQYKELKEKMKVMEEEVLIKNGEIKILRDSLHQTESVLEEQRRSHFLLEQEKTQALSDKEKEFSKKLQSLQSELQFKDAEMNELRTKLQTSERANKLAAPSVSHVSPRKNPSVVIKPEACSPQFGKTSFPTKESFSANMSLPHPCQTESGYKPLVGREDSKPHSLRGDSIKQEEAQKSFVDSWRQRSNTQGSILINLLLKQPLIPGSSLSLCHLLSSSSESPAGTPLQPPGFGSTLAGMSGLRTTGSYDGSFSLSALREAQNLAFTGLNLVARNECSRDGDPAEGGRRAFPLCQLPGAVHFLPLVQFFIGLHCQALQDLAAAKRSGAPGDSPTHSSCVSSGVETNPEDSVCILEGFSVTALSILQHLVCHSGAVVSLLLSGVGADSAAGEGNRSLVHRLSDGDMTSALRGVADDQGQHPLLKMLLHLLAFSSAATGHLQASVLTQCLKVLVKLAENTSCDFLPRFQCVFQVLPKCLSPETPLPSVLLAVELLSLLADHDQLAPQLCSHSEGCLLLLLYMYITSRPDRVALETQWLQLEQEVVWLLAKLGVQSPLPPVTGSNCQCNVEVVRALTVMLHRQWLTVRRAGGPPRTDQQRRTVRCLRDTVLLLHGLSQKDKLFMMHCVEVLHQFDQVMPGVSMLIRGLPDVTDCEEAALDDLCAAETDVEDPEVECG", "test": "Western blot of phospho-CHK1(S345) in HU-treated cells", "format": "cell-based", "settings": "5 μM ATRi; HU-treated U2OS cells", "protocol": "FIG. 3 is a Western Blot (“WB”) of U2OS cells treated with ATRi for 30 minutes prior to a 3-hour HU treatment. WB analysis was performed against phospho-CHK1(S345), CHK1 and Actin.\n(§2) Cells were harvested and lysed in modified radioimmunoprecipitation assay (RIPA) buffer (50 mM Tris-HCl pH 7.5, 150 mM NaCl, 1% tergitol, 0.25% sodium deoxycholate, 5 mM EDTA) supplemented with Complete EDTA-free protease inhibitor cocktail (Roche), 1 mM PMSF, 5 mM sodium fluoride, 10 mM β-glycerol-phosphate and 0.4 mM sodium orthovanadate. Whole cell lysates were cleared with 5 minute centrifugation at 13,000 rpm at 4° C. and mixed with 3×SDS sample buffer (bromophenol blue, stacking gel buffer, 50% glycerol, 3% SDS and 60 mM DTT). After being resolved on SDS-PAGE gels, proteins were then transferred onto polyvinylidene difluoride (PVDF) membranes and detected with designated antibodies."}, "[4]": {"test_system": "U2OS cells", "test": "Immunoblotting of HR factor abundance", "format": "cell-based, Human", "protocol": "FIG. 5A is a schematic diagram of the SILAC/MS experiment. FIG. 5B is a quadrant diagram of the SILAC/MS experiment. Each dot represents a different identified protein. Proteins with abundance reduced two-fold or more after ATRi treatment are shown in the upper-left corner (white quadrant). FIG. 5C is a WB analysis of U2OS cells after 8 days of chronic treatment with 5 μM of ATRi or ATMi. FIG. 5D is a time course WB analysis of U2OS cells during chronic treatment with 5 μM ATRi. FIG. 5E is a WB analysis of U2OS cells at distinct cell cycle stages. Cells were treated with 1 mM hydroxyurea (HU) or 50 ng/ml nocodazole (Noc) for 24 hours. HU treated cells were released for 2.5 hours in HU-free media. FIG. 5F is a WB analysis of U2OS cells untreated or treated for 8 days with 5 μM ATRi.\nas §1, §2"}}}
{"smiles": "CS(=O)(=O)c1ccc(-c2cnc(N)c(C(=O)Nc3ccccc3)n2)cc1", "note": "[ATRi, VE-821]", "values": [{"measurement": "HR-mediated repair efficiency (DR-GFP, GFP positive cells over DMSO)", "setting": "[1]; 5 μM, chronic 8 days", "value": "strikingly more severe impairment in HR-mediated repair as compared to short-term ATR inhibition"}, {"measurement": "HR (DR-GFP) upon short-term ATR inhibition", "setting": "[1]; short-term (2 days) ATRi", "value": "modest reduction in HR"}, {"measurement": "NHEJ efficiency (EJ5-GFP)", "setting": "[2]", "value": "does not result in a significant change in NHEJ efficiency"}, {"measurement": "ATR inhibition monitored by CHK1 phosphorylation", "setting": "[3]", "value": "almost complete ATR inhibition"}, {"measurement": "Changes in abundance of NHEJ factors 53BP1 and PTIP (WB)", "setting": "[4]; 5 μM ATRi, 8 days", "value": "minimal"}, {"measurement": "Changes in protein abundance, time course (WB)", "setting": "[4]; 5 μM ATRi, after 2 and 4 days", "value": "minor changes in protein abundance"}, {"measurement": "Changes in protein abundance, time course (WB)", "setting": "[4]; 5 μM ATRi, after 6 and 8 days", "value": "changes become more striking"}, {"measurement": "Abundance of several proteins involved in HR-mediated repair (WB)", "setting": "[4]; chronic ATR inhibition", "value": "severely reduced"}, {"measurement": "Protein levels of RAD51 and TOPBP1 (WB)", "setting": "[4]; chronic ATR inhibition, 5 μM, 8 days", "value": "reduced"}]}
